Data from PubChem BioAssay AID179 (DTP/NCI, 2004).
pEC50, pIC50: −log10 of the molar value. “And” between values parts separate entries of the source, which are not always exact repeats. Equal entries are not always repeated. The source made the active and inactive calls.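 How the source made its calls: active means compounds giving half or more protection of infected cells from virus-caused growth loss, again on retest; inactive means the rest.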

Test system: CEM cells HIV-1 protection, formazan growth assay
Assay: NCI AIDS Antiviral Assay
Conditions: for pIC50: measured here: growth of uninfected CEM cells
In short: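 Steps: treat uninfected and HIV-1-infected human CEM cells at five drug levels; quantify growth by soluble formazan; retest any compound reaching 50% protection; classify actives from the retest.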

Row | Structure (SMILES) | pEC50 | pIC50 | outcome
1 | O=c1[nH][nH]c(=O)n1Cc1ccccc1 | < 3.70 | < 3.70 | –
2 | O=C(O)c1nc(-c2ccccc2)ncc1-c1nnnn1-c1ccccc1 | < 3.70 | < 3.70 | –
3 | Cc1nc(Nc2ccccc2)sc1C(=O)NNC(N)=O | < 3.82 | 4.20 | –
4 | O=S1CCCCS1 (stereo not drawn) | < 3.04 | 4.76 | –
5 | CC(=O)OCC1OC(n2c(N)c(C#N)c(C)c(C#N)c2=S)C(OC(C)=O)C(OC(C)=O)C1OC(C)=O (stereo not drawn) | 3.84 and 3.79 | < 3.70 | –
6 | C[CH2][Sn]([CH2]C)([O]C(=O)c1cc(OC)c(OC)c(OC)c1)[O][Sn]([CH2]C)([CH2]C)[O]C(=O)c1cc(OC)c(OC)c(OC)c1 | < 5.18 | < 5.18 | –
7 | CC(CC(C)[C@H]1CCC2[C@H]3C(CC[C@@]21C)[C@@]1(C)CCC(O)C[C@H]1C[C@@H]3O)C(=O)O (stereo partly drawn) | – | – | inactive
8 | O=C(O)C1(C(=O)O)CC23CCC2(COC3)C1 (stereo not drawn) | – | – | inactive
9 | NC(=Nc1nc(-c2ccccn2)cc2ccccc12)c1ccccn1 | < 4.65 | 7.07 | –
10 | CC(=O)c1c2c(cc3c1CC1(C3)Cc3ccc4c(c3C1=O)CCC4)CCC2 (stereo not drawn) | < 3.70 | 4.39 | –
11 | N#Cc1c2c(c(N=[N+]=[N-])n3c1nc1ccccc13)CCCC2 | < 5.33 | < 5.33 | –
12 | O=C(OC1CCCCC1)c1cc(NC(=S)c2ccccc2F)ccc1Cl | 7.44 | 4.74 | –
13 | Cc1ccc(S(=O)(=O)N/N=C/c2oc(-c3cccc([N+](=O)[O-])c3)c(-c3cccc([N+](=O)[O-])c3)c2[N+](=O)[O-])cc1 | < 4.33 | < 4.33 | –
14 | CC(C)(C)[Si](C)(C)OCC1OC(n2ccc(=O)[nH]c2=O)C(O[Si](C)(C)C(C)(C)C)C1CCN(O)CC1OC(n2ccc(=O)[nH]c2=O)C(O[Si](C)(C)C(C)(C)C)C1O[Si](C)(C)C(C)(C)C (stereo not drawn) | < 4.00 | < 4.00 | –
15 | CN(C)Cc1cc(C(=O)/C=C/c2ccc(O)cc2)cc(CN(C)C)c1O | – | – | inactive
16 | OC(c1nc2ccccc2s1)(C(F)(F)F)C(F)(F)F | – | – | inactive
17 | Cc1cccc(N2CCN(S(=O)(=O)c3ccc(Cl)cc3)C2=N)c1C | < 3.70 | < 3.70 | –
18 | O=C1NNC(=O)c2ccccc2SSc2ccccc2C(=O)NNC(=O)c2ccccc2SSc2ccccc21 | 5.30 | 4.60 | –
19 | CC1=NC(C)(C)N(O)C1(C)C | < 3.70 | < 3.70 | –
20 | C=C(C)CCOC(c1ccccc1)(c1ccccc1)c1ccccc1 | < 4.66 | < 4.66 | –
21 | O=[N+]([O-])c1ccccc1Sc1ccccc1[N+](=O)[O-] | < 5.10 | – | –
22 | C1=CN2CCCN3C=CC=c4ccc(c2c43)=C1 | < 3.70 | 3.96 | –

Row | Structure (SMILES) | pEC50 | pIC50 | outcome
23 | N#C/C(=C/c1cccs1)c1cccs1 | < 3.70 | < 3.70 | –
24 | Cc1ccc(CCNC(=S)SCC(NC(=O)CCC(N)C(=O)O)C(=O)NCC(=O)O)cc1 (stereo not drawn) | < 3.99 | 5.06 | –
25 | O=C(NCCCl)N1CCC(CN=c2cc3n(-c4ccc(Cl)cc4)c4ccccc4nc-3cc2Nc2ccc(Cl)cc2)CC1 | < 4.00 | 4.77 | –
26 | O=[N+]([O-])c1c(Cl)cccc1-c1c[nH]cc1Cl | < 3.58 | 4.21 | –
27 | CCOC(OCC)c1ccc(-n2c(N)c(C#N)cnc2=S)c2c1OC2=NC=C(C#N)C#N | < 3.82 | < 3.82 | –
28 | N#CC(C#N)=Cc1ccccc1C(=O)O | < 3.70 | 3.96 | –
29 | CC(CO)CS(=O)(=O)O (stereo not drawn) | < 3.70 | < 3.70 | –
30 | Cc1ccc(SC(CCC(Sc2ccc(C)cc2)Sc2ccc(C)cc2)Sc2ccc(C)cc2)cc1 | – | – | inactive
31 | COc1c(OC)c(N)c2cc(C)c(=O)c(C)cc2c1N | < 3.62 | 4.25 | –
32 | CCN(CC)Cc1c(C(=O)NCCO)[n+](=O)c2ccccc2n1[O-] | < 3.75 | < 3.75 | –
33 | CCCCCCCCOC1N(C2CC(N=[N+]=[N-])C(CO)O2)C(=O)NC(=O)[C@]1(C)Br (stereo partly drawn) | 6.37 | 4.90 | –
34 | CC(=O)Oc1cc(OC(C)=O)c2c(c1C)CC[C@@H]1[C@@H]2CC[C@]2(C)[C@@H](OC(C)=O)CC[C@@H]12 | < 3.70 | 4.74 | –
35 | CCc1c(-c2coc(CC/C(C)=C/c3ccccc3)n2)oc(OC)c(C)c1=O | < 5.02 | 6.60 | –
36 | CCOC(=O)/C(=C/c1ccc(N(C)C)cc1)N(CC)CC | < 4.33 | < 4.33 | –
37 | Cn1c(COc2ccc(/C=N/Nc3ccnc(N/N=C/c4ccc(OCc5c[n+]6ccccc6n5C)cc4)n3)cc2)c[n+]2ccccc12 | 5.52 | 5.49 | –
38 | CCc1cccc(C(C)C)c1NC(=O)C(=O)C(CC(=O)Nc1ccc(Cl)c(Cl)c1)C(=O)OC (stereo not drawn) | < 4.97 | < 4.97 | –
39 | COc1nc2c(c(=O)[nH]1)N=C(c1ccc([N+](=O)[O-])cc1)CC(c1ccccc1)N2 (stereo not drawn) | < 3.70 | 4.33 | –
40 | Cc1nc(-n2nc(-c3ccccc3)cc2-c2ccccc2)sc1C(=O)/C=C/c1cccc([N+](=O)[O-])c1 | < 4.84 | 4.96 | –
41 | COc1cccc(/C(CC(O)(C(F)(F)F)C(F)(F)F)=N\N(C)C)c1 | < 3.70 | < 3.70 | –
42 | Cn1c(=O)c2ncc(N)nc2n(C)c1=O | < 4.00 | < 4.00 | –
43 | O=C1c2cc3c(cc2CC12Cc1ccccc1C2)CCC3 | < 3.70 | 4.55 | –
44 | COCC(=O)[C@]1(O)Cc2c(O)c3c(c(O)c2[C@@H](OC2CC(N)C(O)C(C)O2)C1)C(=O)c1c(OC)cccc1C3=O (stereo partly drawn) | < 6.70 | 7.20 | –

Row | Structure (SMILES) | pEC50 | pIC50 | outcome
45 | CC(C)NC(=O)OCc1c(COC(=O)NC(C)C)n(C)c2c1ccc1cc(Cl)c(Cl)cc12 | < 3.70 | 5.53 | –
46 | CCO/C(=C/C(=O)OC)NCCc1c[nH]c2ccccc12 | < 3.86 | 3.87 | –
47 | O=C1c2cc3c(cc2CC12Cc1ccc4c(c1C2=O)CCC4)CCC3 (stereo not drawn) | < 3.70 | < 3.70 | –
48 | CCOc1cn(C2OC(CO)C(O)C2O)c(=O)[nH]c1=O (stereo not drawn) | < 3.06 | 3.31 | –
49 | OC1COc2c3ccccc3nn2C1 (stereo not drawn) | < 2.88 | 3.06 | –
50 | O=c1nc(-c2ccccc2)scc1-c1ccccc1 | < 4.42 | < 4.42 | –
51 | C=C1CCC2(C)[C@H](C)CC[C@H](O)C2(CCC=C(C)C)[C@@H]1Cc1c[nH]c2ccccc12 (stereo partly drawn) | – | – | inactive
52 | S=c1[nH]nc(Cn2c3ccc(Br)cc3c3nc4ccccc4nc32)n1C1CCCCC1 | < 3.70 | 4.29 | –
53 | NC(=O)CSSCC(N)=O | 4.67 | 4.15 | –
54 | COc1ccccc1C1SCC(=O)N1c1ccc(-c2ccc(-n3c(-c4ccccc4)nc4ccccc4c3=O)cc2)cc1 (stereo not drawn) | < 3.70 | < 3.70 | –
55 | CC(=O)[O-].O=C([N-]/N=C\c1ccoc1)c1ccncc1.[Ni+2].[OH3+].[OH3+].c1ccncc1 | < 3.70 | < 3.70 | –
56 | COC(=O)C1C2CC3C(C2=O)C31 (stereo not drawn) | < 3.70 | < 3.70 | –
57 | O=C(c1ccccc1)C(O)(Cc1ccccc1)c1ccccc1 (stereo not drawn) | < 4.07 | 4.15 | –
58 | COC1(CC2(OC)C=CC(=O)O2)C=CC(=O)O1 (stereo not drawn) | < 3.98 | 4.26 | –
59 | O=C1/C(=C/c2cccc(O)c2)COc2ccccc21 | < 3.91 | 5.37 | –
60 | NCCCCC(NC(=O)C(Cc1cnc[nH]1)NC(=O)CN)C(=O)O.[Cu+2] (stereo not drawn) | < 3.70 | 4.15 | –
61 | O=[N+]([O-])c1ccc2nc(/C=C(\O)c3ccccc3)c(NC34CC5CC(CC(C5)C3)C4)nc2c1 | < 3.70 | 3.74 | –
62 | CC(C)C(Sc1nc(-c2ccccc2)c(-c2ccccc2)[nH]1)C(=O)N/N=C/c1ccc([N+](=O)[O-])cc1 (stereo not drawn) | < 4.84 | < 4.84 | –
63 | COc1cc(OC)c2nc(C)c3c(c2c1)NCC3 | < 3.70 | 5.40 | –
64 | COc1cccc(N2C(=O)C3C4C=C5c6ccccc6N(c6ccccc6)C5(C3C2=O)[C@H]2C(=O)N(c3cccc(OC)c3)C(=O)[C@@H]42)c1 (stereo partly drawn) | < 5.36 | < 5.36 | –
65 | COc1cc(C2(C)SCCCS2)cc(OC)c1OC | < 3.74 | < 3.74 | –
66 | O=C(c1cc(Cl)ccc1Cl)N1CCN(c2cccc(Cl)c2)CC1 | < 3.70 | 4.81 | –

Row | Structure (SMILES) | pEC50 | pIC50 | outcome
67 | Cc1ccnc(NC(=O)Nc2cc(Cl)ccc2Cl)c1 | < 3.70 | < 3.70 | –
68 | Cc1nc(C)c(C(=O)NNC(N)=S)cc1C(=O)NNC(N)=S | < 3.70 | < 3.70 | –
69 | COC1(OC)CC(CO)(COc2cc(Cl)nc(N)n2)C1 | < 3.70 | < 3.70 | –
70 | O=S1(=O)c2ccccc2C(Nc2ccccc2)N1c1ccccc1 (stereo not drawn) | < 3.70 | 4.18 | –
71 | N#CC1C2C1C1C=CC2n2c(=O)n(-c3ccccc3)c(=O)n21 (stereo not drawn) | < 3.70 | < 3.70 | –
72 | O=[N+]([O-])c1ccc(N2N=C(c3ccc4ccccc4c3O)CC2c2ccc(Cl)cc2)c([N+](=O)[O-])c1 (stereo not drawn) | < 3.70 | 4.36 | –
73 | O=[N+]([O-])c1ccc(SSc2ccc([N+](=O)[O-])cc2)cc1 | < 3.70 | 4.62 | inactive
74 | CCCCCCCCCCCCCCCCOCC(CP(=O)([O-])OCC[n+]1ccccc1)OC (stereo not drawn) | < 5.30 | 5.60 | –
75 | O=C1/C(=C/c2cccc([N+](=O)[O-])c2)COc2ccc(Br)cc21 | < 4.98 | < 4.98 | –
76 | CN1c2ccccc2C(=O)Nc2cnc(Cl)nc21 | < 3.70 | < 3.70 | –
77 | CC(=O)N1N=C(N)CC1=O | < 3.70 | < 3.70 | –
78 | O=Nc1c(-c2ccc(Cl)cc2)nc2ncccn12 | < 3.70 | 4.42 | –
79 | COc1ccccc1/C=C/C(=O)c1ccccc1 | < 4.24 | 4.95 | –
80 | O=C(c1ccccc1)C1CSS(=O)(=O)C1c1ccccc1 (stereo not drawn) | 4.56 | 4.04 | –
81 | C=C1CN(C(=O)c2cc3cc(OC)c(OC)c(OC)c3[nH]2)c2cc([N+](=O)[O-])ccc21 | 4.57 | < 3.70 | –
82 | C[N+](C)(CCNC(=O)c1cccc2cc3ccccc3nc12)Cc1ccc([N+](=O)[O-])cc1 | < 3.70 | 4.01 | –
83 | COC(=O)C12C3C4C5C3(C#N)C1C5(C(=O)OC)C42C(=O)N(C(C)C)C(C)C (stereo not drawn) | < 4.01 | < 4.01 | –
84 | CC(=O)OCC(=O)OC[C@H](OCc1ccccc1)[C@@H]1[C@H](OC(C)=O)C(=O)N1Cc1ccccc1 | < 3.70 | 3.84 | –
85 | O=C(O)C1(C(=O)O)CC1 | – | – | inactive
